Experimental findings from patent EP4707277A1, “NOVEL HETEROCYCLIC AMINE DERIVATIVES AND PHARMACEUTICAL COMPOSITION COMPRISING SAME” (Daewoong Pharmaceutical Co., Ltd., priority 2023, dated 2024) are described below.

The target of one assay is T1, BTK (Homo sapiens, UniProt Q06187).
T1 construct: purchased Signalchem B10-10H
Briefly: Inhibitory activity against BTK, ADP-Glo Kinase system (Promega). In kind it is biochemical. The method, boiled down: (§1)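 IC50 values were fitted from kinase reactions run for 1 h at 30°C with either 1 mM ATP or ATP at Km (10 µM for BTK, 25 µM for ITK). Reactions used 0.2 µg/µl poly(Glu4,Tyr1), recombinant human enzyme (BTK 10 ng, ITK 4 ng per reaction) in Tris pH 7.5 Mn/Mg buffer with 1% DMSO. ADP formed was read by ADP-Glo luminescence.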
In general terms: In ADP-Glo the light output rises with the ADP produced.

The target of another assay is T2, ITK (Homo sapiens, UniProt Q08881).
T2 construct: purchased Signalchem I13-11G-10
T2 sequence (Q08881 1-620): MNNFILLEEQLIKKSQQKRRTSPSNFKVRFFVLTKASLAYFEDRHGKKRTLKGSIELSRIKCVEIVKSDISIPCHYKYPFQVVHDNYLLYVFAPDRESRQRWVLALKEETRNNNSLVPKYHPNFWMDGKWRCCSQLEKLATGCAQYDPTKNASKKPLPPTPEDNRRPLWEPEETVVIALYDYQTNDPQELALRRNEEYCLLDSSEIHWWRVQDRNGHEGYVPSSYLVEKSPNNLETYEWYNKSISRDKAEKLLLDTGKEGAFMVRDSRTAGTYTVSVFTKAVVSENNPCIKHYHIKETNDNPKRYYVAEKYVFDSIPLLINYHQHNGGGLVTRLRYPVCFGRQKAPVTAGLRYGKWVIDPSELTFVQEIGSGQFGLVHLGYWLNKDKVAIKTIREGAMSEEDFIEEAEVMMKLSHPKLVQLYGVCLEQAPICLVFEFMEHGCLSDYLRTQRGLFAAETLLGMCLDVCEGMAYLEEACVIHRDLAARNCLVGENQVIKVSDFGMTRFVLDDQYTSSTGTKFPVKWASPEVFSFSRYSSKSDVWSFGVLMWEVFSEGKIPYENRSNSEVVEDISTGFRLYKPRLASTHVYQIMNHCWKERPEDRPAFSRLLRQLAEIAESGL
Briefly: Inhibitory activity against ITK, ADP-Glo Kinase system (Promega). In kind it is biochemical. A digest of the protocol: as §1

[1] abbreviates: Km ATP (BTK: 10 uM), read-out: BTK IC50(nM) Km ATP.
The mark [2] stands for this setting: Km ATP (ITK: 25uM), read-out: ITK IC50(nM) Km ATP.
Setting [3] is: 1mM ATP, read-out: BTK IC50(nM) 1mM ATP.
Setting [4] is: 1mM ATP, read-out: ITK IC50(nM) 1mM ATP.

Structures are written as SMILES. Read-outs that look alike come from different tables or passages of the source.

T1 sequence (Q06187 whole entry): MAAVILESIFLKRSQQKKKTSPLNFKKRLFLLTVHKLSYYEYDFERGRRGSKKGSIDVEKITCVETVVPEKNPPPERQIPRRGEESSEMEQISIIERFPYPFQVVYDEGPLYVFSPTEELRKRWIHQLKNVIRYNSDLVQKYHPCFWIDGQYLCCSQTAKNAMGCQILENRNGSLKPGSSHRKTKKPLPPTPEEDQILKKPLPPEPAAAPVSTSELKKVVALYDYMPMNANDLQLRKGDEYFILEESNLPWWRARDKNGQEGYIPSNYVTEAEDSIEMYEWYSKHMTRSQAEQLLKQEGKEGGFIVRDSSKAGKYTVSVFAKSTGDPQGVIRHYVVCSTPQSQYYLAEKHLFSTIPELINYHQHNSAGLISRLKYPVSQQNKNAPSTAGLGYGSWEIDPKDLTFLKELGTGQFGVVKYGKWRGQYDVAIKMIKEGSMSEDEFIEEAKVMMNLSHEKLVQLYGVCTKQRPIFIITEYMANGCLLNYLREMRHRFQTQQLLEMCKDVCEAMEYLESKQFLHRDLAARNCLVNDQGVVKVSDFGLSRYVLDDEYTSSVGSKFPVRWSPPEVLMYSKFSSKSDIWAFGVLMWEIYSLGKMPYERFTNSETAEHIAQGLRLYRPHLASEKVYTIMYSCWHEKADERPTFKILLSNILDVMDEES

Consider `C=CC(=O)N1CC=C(c2nc(Nc3ncc(C)s3)cc3c2ccn3CC2CCC2)CC1` [Example 7, 1-(4-(1-(cyclobutylmethyl)-6-((5-methylthiazol-2-yl)amino)-1H-pyrrolo[3,2-c]pyridin-4-yl)-3,6-dihydropyridin-1(2H)-yl)prop-2-en-1-one], for which the IC50 on BTK (setting [1]) and on ITK (setting [2]) was at most 20 nM in each case.

As for `C/C=C/C(=O)N1CC[C@H](Oc2nc(Nc3ncc(C)s3)cc3c2ccn3CC(C)C)C1` [Example 226, (S,E)-1-(3-((1-isobutyl-6-((5-methylthiazol-2-yl)amino)-1H-pyrrolo[3,2-c]pyridin-4-yl)oxy)pyrrolidin-1-yl)but-2-en-1-one], the IC50 at BTK (setting [3]) and on ITK (setting [4]) was over 500 nM in each case.

Regarding `C=CC(=O)N1CC[C@@H](Oc2nc(Nc3ncc(C)s3)cc3c2ccn3C(C)C)C1` [Example 162, (R)-1-(3-((1-isopropyl-6-((5-methylthiazol-2-yl)amino)-1H-pyrrolo[3,2-c]pyridin-4-yl)oxy)pyrrolidin-1-yl)prop-2-en-1-one], the IC50 at BTK (setting [3]) and at ITK (setting [4]) was over 500 nM each time.

As for `C=CC(=O)N1C[C@@H](F)[C@H](Oc2nc(Nc3ncc(C)s3)cc3c2ccn3C[C@@H](C)CC)C1` [Example 175, 1-((3R,4R)-3-fluoro-4-((1-((S)-2-methylbutyl)-6-((5-methylthiazol-2-yl)amino)-1H-pyrrolo[3,2-c]pyridin-4-yl)oxy)pyrrolidin-1-yl)prop-2-en-1-one], the IC50 at BTK (setting [3]) and on ITK (setting [4]) was at most 20 nM in each case.

As for `C=CC(=O)N1CCC[C@@H]1COc1nc(Nc2ncc(C)s2)cc2c1ccn2CC(F)F` [Example 210, (R)-1-(2-(((1-(2,2-difluoroethyl)-6-((5-methylthiazol-2-yl)amino)-1H-pyrrolo[3,2-c]pyridin-4-yl)oxy)methyl)pyrrolidin-1-yl)prop-2-en-1-one], the IC50 on BTK (setting [3]) and on ITK (setting [4]) was at most 20 nM throughout.

For `C=CC(=O)N1CCC[C@H]1COc1nc(Nc2ncc(C)s2)cc2c1ccn2CC1CCCC1` [Example 220, (S)-1-(2-(((1-(cyclopentylmethyl)-6-((5-methylthiazol-2-yl)amino)-1H-pyrrolo[3,2-c]pyridin-4-yl)oxy)methyl)pyrrolidin-1-yl)prop-2-en-1-one], the results for the IC50 on BTK (setting [3]) and at ITK (setting [4]) were at most 20 nM and 20 to 100 nM, respectively.

As to `C=CC(=O)N1C[C@@H](F)[C@H](Oc2nc(Nc3ncc(C)s3)cc3c2ccn3CC(C)C)C1` [Example 106, 1-((3R,4R)-3-fluoro-4-((1-isobutyl-6-((5-methylthiazol-2-yl)amino)-1H-pyrrolo[3,2-c]pyridin-4-yl)oxy)pyrrolidin-1-yl)prop-2-en-1-one], the IC50 at BTK (setting [3]) and at ITK (setting [4]) was at most 20 nM throughout.

In the case of `C=CC(=O)N1CC[C@H](Oc2nc(Nc3ncc(C)s3)cc3c2ccn3CCOC)C1` [Example 127, (S)-1-(3-((1-(2-methoxyethyl)-6-((5-methylthiazol-2-yl)amino)-1H-pyrrolo[3,2-c]pyridin-4-yl)oxy)pyrrolidin-1-yl)prop-2-en-1-one], the IC50 at BTK (setting [3]) and on ITK (setting [4]) was at most 20 nM throughout.

Turning to `C=CC(=O)N1CC=C(c2nc(Nc3ncc(C)s3)cc3c2ccn3C)C1` [Example 3, 1-(3-(1-methyl-6-((5-methylthiazol-2-yl)amino)-1H-pyrrolo[3,2-c]pyridin-4-yl)-2,5-dihydro-1H-pyrrol-1-yl)prop-2-en-1-one], the IC50 at BTK (setting [1]) and at ITK (setting [2]) was 100 to 500 nM each time.

Regarding `C=CC(=O)N1C[C@H](F)[C@H](Oc2nc(Nc3ncc(C)s3)cc3c2ccn3CC(F)(F)F)C1` [Example 211, 1-((3S,4R)-3-fluoro-4-((6-((5-methylthiazol-2-yl)amino)-1-(2,2,2-trifluoroethyl)-1H-pyrrolo[3,2-c]pyridin-4-yl)oxy)pyrrolidin-1-yl)prop-2-en-1-one], the IC50 at BTK (setting [3]) and on ITK (setting [4]) was at most 20 nM throughout.

For the compound `C=CC(=O)N1C2C=C(c3nc(Nc4ncc(C)s4)cc4c3ccn4C)CC1CCC2` (centres unmarked) [Example 36, 1-(3-(1-methyl-6-((5-methylthiazol-2-yl)amino)-1H-pyrrolo[3,2-c]pyridin-4-yl)-9-azabicyclo[3.3.1]non-2-en-9-yl)prop-2-en-1-one], the IC50 on BTK (setting [3]) and at ITK (setting [4]) was at most 20 nM in each case.

Take `C=CC(=O)N1CCCC12CCC(Oc1nc(Nc3ncc(C)s3)cc3c1ccn3CC(C)C)C2` (centres unmarked) [Example 201, 1-(7-((1-isobutyl-6-((5-methylthiazol-2-yl)amino)-1H-pyrrolo[3,2-c]pyridin-4-yl)oxy)-1-azaspiro[4.4]nonan-1-yl)prop-2-en-1-one]: the IC50 (as a rule, the concentration that gives 50% inhibition) at BTK (setting [3]) was 100 to 500 nM; at ITK (setting [4]) it was over 500 nM.

In the case of `C=CC(=O)N1CC=C(c2nc(Nc3ncc(C)s3)cc3c2ccn3CC2CCOC2)CC1` (centres unmarked) [Example 8, 1-(4-(6-((5-methylthiazol-2-yl)amino)-1-((tetrahydrofuran-3-yl)methyl)-1H-pyrrolo[3,2-c]pyridin-4-yl)-3,6-dihydropyridin-1(2H)-yl)prop-2-en-1-one], the IC50 on BTK (setting [1]) and on ITK (setting [2]) was at most 20 nM throughout.

`C=CC(=O)N1CC[C@H](Oc2nc(Nc3ncc(C)s3)cc3c2ccn3CC2CCOCC2)C1` [Example 133, (S)-1-(3-((6-((5-methylthiazol-2-yl)amino)-1-((tetrahydro-2H-pyran-4-yl)methyl)-1H-pyrrolo[3,2-c]pyridin-4-yl)oxy)pyrrolidin-1-yl)prop-2-en-1-one]: the IC50 on BTK (setting [3]) and on ITK (setting [4]) was at most 20 nM each time.

On to `C=CC(=O)N1C[C@@H](Oc2nc(Nc3ncc(C)s3)cc3c2ccn3CC(C)C)C[C@@H]1C` [Example 179, 1-((2S,4S)-4-((1-isobutyl-6-((5-methylthiazol-2-yl)amino)-1H-pyrrolo[3,2-c]pyridin-4-yl)oxy)-2-methylpyrrolidin-1-yl)prop-2-en-1-one], for which the IC50 at BTK (setting [3]) and at ITK (setting [4]) was at most 20 nM each time.

For `C=CC(=O)N1CC(C)C(Oc2nc(Nc3ncc(C)s3)cc3c2ccn3CC(C)C)C1` (centres unmarked) [Example 116, 1-(3-((1-isobutyl-6-((5-methylthiazol-2-yl)amino)-1H-pyrrolo[3,2-c]pyridin-4-yl)oxy)-4-methylpyrrolidin-1-yl)prop-2-en-1-one], the IC50 on BTK (setting [1]) and at ITK (setting [2]) was at most 20 nM each time.

As to `C=CC(=O)Nc1ccc(F)c(-c2nc(Nc3ncc(C)s3)cc3c2ccn3CC2CCOC2)c1` (centres unmarked) [Example 71, N-(4-fluoro-3-(6-((5-methylthiazol-2-yl)amino)-1-((tetrahydrofuran-3-yl)methyl)-1H-pyrrolo[3,2-c]pyridin-4-yl)phenyl)acrylamide], the IC50 at BTK (setting [1]) and at ITK (setting [2]) was at most 20 nM throughout.

`C=CC(=O)N1CCCC1COc1nc(Nc2ncc(C)s2)cc2c1ccn2C1CCCC1` (centres unmarked) [Example 217, 1-(2-(((1-cyclopentyl-6-((5-methylthiazol-2-yl)amino)-1H-pyrrolo[3,2-c]pyridin-4-yl)oxy)methyl)pyrrolidin-1-yl)prop-2-en-1-one]: the IC50 on BTK (setting [3]) is at most 20 nM; at ITK (setting [4]) it was 20 to 100 nM.

Regarding `C=CC(=O)N1C[C@@H](F)[C@H](Oc2nc(Nc3ncc(C)s3)cc3c2ccn3CCC(C)C)C1` [Example 115, 1-((3R,4R)-3-fluoro-4-((1-isopentyl-6-((5-methylthiazol-2-yl)amino)-1H-pyrrolo[3,2-c]pyridin-4-yl)oxy)pyrrolidin-1-yl)prop-2-en-1-one], the IC50 on BTK (setting [1]) and at ITK (setting [2]) was at most 20 nM in each case.

`C=CC(=O)N1C[C@@H](F)[C@H](Oc2nc(Nc3ncc(C)s3)cc3c2ccn3CC(C)CC)C1` (stereo partly drawn) [Example 173, 1-((3R,4R)-3-fluoro-4-((1-(2-methylbutyl)-6-((5-methylthiazol-2-yl)amino)-1H-pyrrolo[3,2-c]pyridin-4-yl)oxy)pyrrolidin-1-yl)prop-2-en-1-one]: the IC50 on BTK (setting [3]) and on ITK (setting [4]) was at most 20 nM each time.

`C=CC(=O)N1CC[C@H](Oc2nc(Nc3ncc(C)s3)cc3c2ccn3CC2CCCCC2)C1` [Example 129, (S)-1-(3-((1-(cyclohexylmethyl)-6-((5-methylthiazol-2-yl)amino)-1H-pyrrolo[3,2-c]pyridin-4-yl)oxy)pyrrolidin-1-yl)prop-2-en-1-one]: the IC50 on BTK (setting [3]) and at ITK (setting [4]) was at most 20 nM in each case.

As to `C=CC(=O)N1CC[C@H](Oc2nc(Nc3ccn(C)n3)cc3c2ccn3C(C)C)C1` [Example 193, (S)-1-(3-((1-isopropyl-6-((1-methyl-1H-pyrazol-3-yl)amino)-1H-pyrrolo[3,2-c]pyridin-4-yl)oxy)pyrrolidin-1-yl)prop-2-en-1-one], the IC50 at BTK (setting [3]) and at ITK (setting [4]) was over 500 nM throughout.
